pEC50: −log10 of the molar value. Where two headings read alike, the source gives them in different places.
Tested on: panel of 183 cancer cell lines
Test: Cell panel of 183 cancer cell lines, viability (CTG) at Crown Bioscience
Format: cell-based
Conditions: Homo sapiens
Description: The panel consisted of cell lines with any substitution at position 12 of KRAS, NRAS or HRAS (KRAS(G12X), NRAS(G12X), HRAS(G12X)); substitutions in KRAS, NRAS or HRAS at any position other than 12, 13 and 61 (KRAS(other/VUS), NRAS(other/VUS), HRAS(other/VUS)); other oncogenic mutations in the RAS pathway (ABL1, ALK, ARAF, BRAF, CBL, EGFR, ERBB2, ERBB3, ERBB4, ERRFI1, FGFR1, FGFR2, FGFR3, FGFR4, FLT3, HRAS, IGF1R, JAK2, KIT, MAP2K1, MAP2K2, MAPK1, MET, NF1, NRAS, NTRK1, NTRK2, NTRK3, PDGFRA, PTPN11, RAC1, RAF1, RASA1, RET, RIT1, ROS1 and SOS1); and no oncogenic mutations in the RAS pathway. […] Cells were incubated for 120 h, and cell viability was determined using the CellTiter-Glo Luminescent Cell Viability Assay (CTG) (Promega, G7572) according to the manufacturer’s instructions.

## CCn1c(-c2cc(N3CCN(C4CC4)CC3)cnc2[C@H](C)OC)c2c3cc(ccc31)-c1csc(n1)C[C@H](NC(=O)[C@H]1[C@@H]3COC[C@@H]31)C(=O)N1CCC[C@H](N1)C(=O)OCC(C)(C)C2 [RMC-7977]
read-out: RMC-7977 EC50 (M), HEP3B217, RAS pathway WT, Liver
  EC50: 9.36e-09 M
read-out: RMC-7977 EC50 (M), HM7, KRAS G12D, Large intestine/Colorectum
  EC50: 1.86e-08 M
read-out: RMC-7977 EC50 (M), HS852T, NRAS G12V, Skin
  EC50: 4.07e-08 M
read-out: RMC-7977 EC50 (M), HUH28, PTPN11 mut, Liver/Bile duct
  EC50: 3.91e-08 M
read-out: RMC-7977 EC50 (M), KG1, FGFR fusion, Blood/leukemia
  EC50: 9.16e-09 M
read-out: RMC-7977 EC50 (M), L82, ALK fusion, Blood/lymphoma
  EC50: 2e-08 M
read-out: RMC-7977 EC50 (M), NOZ, KRAS G12V, Liver/Bile duct
  EC50: 4.17e-09 M
read-out: RMC-7977 EC50 (M), OZ, KRAS Q61L, Liver/Bile duct
  EC50: 3.55e-09 M
read-out: RMC-7977 EC50 (M), PC9, EGFR mut, Lung
  EC50: 1.56e-08 M
read-out: RMC-7977 EC50 (M), RBE, KRAS G12V, Liver/Bile duct
  EC50: 3.39e-10 M
read-out: RMC-7977 EC50 (M), RKO, BRAF V600E, Large intestine/Colorectum
  EC50: > 1e-06 M
read-out: RMC-7977 EC50 (M), RT4, FGFR fusion, Bladder
  EC50: 1.32e-08 M
read-out: RMC-7977 EC50 (M), SCH, RAS pathway WT, Stomach
  EC50: > 1e-06 M
read-out: RMC-7977 EC50 (M), SNU719, NRAS Q61L, Stomach
  EC50: 6.76e-09 M
read-out: RMC-7977 EC50 (M), SNU2535, ALK fusion, Lung
  EC50: 6.42e-09 M
read-out: RMC-7977 EC50 (M), SNUC2A, KRAS G12D, Large intestine/Colorectum
  EC50: 2.45e-09 M
read-out: RMC-7977 EC50 (M), SR, ALK fusion, Thymus
  EC50: 1.41e-08 M
read-out: RMC-7977 EC50 (M), T24, HRAS G12V, Bladder
  EC50: 1.2e-09 M
read-out: RMC-7977 EC50 (M), T84, KRAS G13D, Large intestine/Colorectum
  EC50: 5.62e-08 M
read-out: RMC-7977 EC50 (M), TE441T, RAS pathway WT, Muscle
  EC50: > 1e-06 M
read-out: RMC-7977 EC50 (M), TJ905, NF1 LOF, Brain&Nerves
  EC50: 1.06e-07 M
read-out: RMC-7977 EC50 (M), YCC2, KRAS G12S, Stomach
  EC50: 2.19e-09 M
read-out: RMC-7977 EC50 (median), median over ALK fusion cell lines
  pEC50: 7.85
read-out: RMC-7977 EC50 (median), median over BRAF V600E cell lines
  pEC50: < 6.00
read-out: RMC-7977 EC50 (median), median over BRAF mut other cell lines
  pEC50: 7.12
read-out: RMC-7977 EC50 (median), median over EGFR mut cell lines
  pEC50: 8.34
read-out: RMC-7977 EC50 (median), median over ERBB3 mut cell lines
  pEC50: 8.23
read-out: RMC-7977 EC50 (median), median over FGFR fusion cell lines
  pEC50: 8.15
read-out: RMC-7977 EC50 (median), median over HRAS G12D cell lines
  pEC50: 8.07
read-out: RMC-7977 EC50 (median), median over HRAS G12V cell lines
  pEC50: 8.92
read-out: RMC-7977 EC50 (median), median over HRAS G161R cell lines
  pEC50: < 6.00
read-out: RMC-7977 EC50 (median), median over HRAS L133R cell lines
  pEC50: 7.91
read-out: RMC-7977 EC50 (median), median over HRAS Q61H cell lines
  pEC50: 8.34
read-out: RMC-7977 EC50 (median), median over HRAS Q61L cell lines
  pEC50: 7.79
read-out: RMC-7977 EC50 (median), median over KRAS A59T cell lines
  pEC50: 8.99
read-out: RMC-7977 EC50 (median), median over KRAS G12A cell lines
  pEC50: 7.92
read-out: RMC-7977 EC50 (median), median over KRAS G12C cell lines
  pEC50: 8.74
read-out: RMC-7977 EC50 (median), median over KRAS G12D cell lines
  pEC50: 8.54
read-out: RMC-7977 EC50 (median), median over KRAS G12R cell lines
  pEC50: 8.56
read-out: RMC-7977 EC50 (median), median over KRAS G12S cell lines
  pEC50: 8.49
read-out: RMC-7977 EC50 (median), median over KRAS G12V cell lines
  pEC50: 8.94
read-out: RMC-7977 EC50 (median), median over KRAS G13C cell lines
  pEC50: 7.85
read-out: RMC-7977 EC50 (median), median over KRAS G13D cell lines
  pEC50: 7.50
read-out: RMC-7977 EC50 (median), median over KRAS P121H cell lines
  pEC50: < 6.00
read-out: RMC-7977 EC50 (median), median over KRAS Q61H cell lines
  pEC50: < 6.00
read-out: RMC-7977 EC50 (median), median over KRAS Q61K cell lines
  pEC50: 8.49
read-out: RMC-7977 EC50 (median), median over KRAS Q61L cell lines
  pEC50: 8.05
read-out: RMC-7977 EC50 (median), median over KRAS R97I cell lines
  pEC50: 8.56
read-out: RMC-7977 EC50 (median), median over MET amp cell lines
  pEC50: 8.34
read-out: RMC-7977 EC50 (median), median over NF1 LOF cell lines
  pEC50: 7.49
read-out: RMC-7977 EC50 (median), median over NRAS G12V cell lines
  pEC50: 7.39
read-out: RMC-7977 EC50 (median), median over NRAS Q61K cell lines
  pEC50: 8.72
read-out: RMC-7977 EC50 (median), median over NRAS Q61L cell lines
  pEC50: 8.17
read-out: RMC-7977 EC50 (median), median over NRAS Q61R cell lines
  pEC50: 8.04
read-out: RMC-7977 EC50 (median), median over NRAS Y137H cell lines
  pEC50: 7.54
read-out: RMC-7977 EC50 (median), median over NTRK1 fusion cell lines
  pEC50: 8.29
read-out: RMC-7977 EC50 (median), median over PTPN11 mut cell lines
  pEC50: 8.10
read-out: RMC-7977 EC50 (median), median over RAS pathway WT cell lines
  pEC50: 7.00
read-out: RMC-7977 EC50 (median), median over RET fusion cell lines
  pEC50: 8.29
read-out: RMC-7977 EC50 (median), median over ROS1 fusion cell lines
  pEC50: 8.13

Reference: article PMC11111408, “Concurrent inhibition of oncogenic and wild-type RAS-GTP for cancer therapy” (Nature, 2024)
